Laboratory results taken from patent US10221177B2 (HYDRA BIOSCIENCES, INC., priority 2014, dated 2019).

Experiments:
human TRPA1 = human TRPA1 (Homo sapiens (Human), UniProt O75762); test: In vitro inhibition of human TRPA1, whole cell patch configuration; type: cell-based; conditions: current activation 10 μM AITC, tested concentrations 320 pM to 3.2 μM, read-out: hTRPA1 IC50
Method in brief: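 Compound antagonism measured from voltage ramps (±100 or ±80 mV, 400 ms, every 4 s from −40 mV), analysed at −80 and 80 mV, or at constant −60 mV. HEPES-buffered NaCl bath, pH 7.4, EGTA or 2 mM Ca2+; temperature set by perfusion, within ±2° C; no junction-potential correction.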

[1] = system: formalin-induced pain behaviors in the rat; test: Formalin-induced pain test (formalin model), duration of pain behaviors; type: in vivo
Experimental: Exemplary compounds of the invention were tested in the formalin-induced pain test reported by Dubuisson et al., Pain 1977 December; 4(2):161-74 (incorporated herein by reference in its entirety). Briefly, dilute formalin (50 μL of 3% formalin) was injected into the plantar surface of the hind paw of a rat. […] The individual responsible for counting the pain behaviors in a particular study was blinded to the treatment groups.
The initial phase (Phase I: 0-5 min) is thought to have a significant component that is dependent upon direct activation of afferent fibers by formalin and functional TRPA1 (McNamara et al., 2007).
Investigators studied oral administration of compounds of the invention at the doses presented in Table 3 on pain behaviors in the formalin model in the rat. Compounds were formulated as solutions in water with various solvents and excipients including dimethyl sulfoxide (DMSO), polyethylene glycol (15)-hydroxystearate (Solutol®, Sigma-Aldrich), caprylocaproyl macrogol-8 glyceride (Labrasol®, Sigma-Aldrich), polysorbate-80 (Tween®-80, Sigma-Aldrich), and polyoxyl 35 castor oil (Cremophor® EL, BASF Corp.); or suspensions in methylcellulose as indicated in Table 3. Animals were dosed orally with the vehicle, or compounds of the invention one hour prior to intraplantar formalin. […] A decrease over Vehicle indicates a positive result. P values, when indicated, indicate significance compared Vehicle.

[2] = 1 mpk PO one hour prior to formalin, solution in 4% DMSO, 10% Solutol, 86% water
[3] = 3 mpk PO one hour prior to formalin, solution in 4% DMSO, 10% Solutol, 86% water
[4] = 10 mpk PO one hour prior to formalin, solution in 4% DMSO, 10% Solutol, 86% water
[5] = 30 mg/kg PO one hour prior to formalin, solution in 8% DMSO and 92% Labrasol
[6] = 1 mg/kg PO one hour prior to formalin, solution in 4% DMSO, 5% Tween-80, 20% Cremophor EL, 71% water
[7] = 3 mg/kg PO one hour prior to formalin, solution in 4% DMSO, 5% Tween-80, 20% Cremophor EL, 71% water
[8] = 10 mg/kg PO one hour prior to formalin, solution in 4% DMSO, 5% Tween-80, 20% Cremophor EL, 71% water
[9] = 30 mg/kg PO one hour prior to formalin, solution in 4% DMSO, 5% Tween-80, 20% Cremophor EL, 71% water

human TRPA1, sequence (O75762 whole entry, the tested form may be a part): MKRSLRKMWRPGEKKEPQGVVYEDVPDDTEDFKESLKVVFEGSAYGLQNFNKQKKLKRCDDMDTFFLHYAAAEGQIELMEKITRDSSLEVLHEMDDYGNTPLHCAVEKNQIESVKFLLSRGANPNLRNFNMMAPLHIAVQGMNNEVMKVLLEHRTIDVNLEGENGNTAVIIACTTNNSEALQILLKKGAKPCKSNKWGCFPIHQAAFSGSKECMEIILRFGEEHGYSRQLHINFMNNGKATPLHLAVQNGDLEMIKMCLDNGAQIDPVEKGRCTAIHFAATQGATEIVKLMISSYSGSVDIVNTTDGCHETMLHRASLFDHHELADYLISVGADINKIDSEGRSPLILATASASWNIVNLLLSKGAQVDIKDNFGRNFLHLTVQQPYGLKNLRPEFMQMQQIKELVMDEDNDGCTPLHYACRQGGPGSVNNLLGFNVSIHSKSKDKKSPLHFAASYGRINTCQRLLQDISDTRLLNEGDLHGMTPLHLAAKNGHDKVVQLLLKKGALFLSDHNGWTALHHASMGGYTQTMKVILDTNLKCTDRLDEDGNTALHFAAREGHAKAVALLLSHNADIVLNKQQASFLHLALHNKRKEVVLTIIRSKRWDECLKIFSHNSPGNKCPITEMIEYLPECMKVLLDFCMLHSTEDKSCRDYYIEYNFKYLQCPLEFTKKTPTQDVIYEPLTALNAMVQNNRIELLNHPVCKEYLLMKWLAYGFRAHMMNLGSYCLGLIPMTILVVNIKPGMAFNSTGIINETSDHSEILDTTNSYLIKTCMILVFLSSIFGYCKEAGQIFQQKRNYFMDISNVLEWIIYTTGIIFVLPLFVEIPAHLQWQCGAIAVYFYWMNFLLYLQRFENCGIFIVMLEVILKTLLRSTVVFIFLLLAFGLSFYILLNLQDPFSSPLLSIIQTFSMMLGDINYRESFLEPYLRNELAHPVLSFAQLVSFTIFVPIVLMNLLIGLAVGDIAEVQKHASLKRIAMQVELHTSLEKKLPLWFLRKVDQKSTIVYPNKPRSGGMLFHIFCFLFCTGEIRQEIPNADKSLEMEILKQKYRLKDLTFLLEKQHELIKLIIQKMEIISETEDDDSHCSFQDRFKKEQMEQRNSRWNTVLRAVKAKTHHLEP

Q: Which IC50 (human TRPA1) does the source give for Cc1cc(Cn2c(=O)c3c(ncn3[C@@H](C)C(=O)Nc3cccc(-c4ccc(C(F)(F)F)nc4)n3)n(C)c2=O)no1 [Compound 7, (S)-2-(3-methyl-1-((5-methylisoxazol-3-yl)methyl)-2,6-dioxo-2,3-dihydro-1H-purin-7(6H)-yl)-N-(6′-(trifluoromethyl)-[2,3′-bipyridin]-6-yl)propanamide] here?
A: Its IC50 is 5 nM.

Q: And the “Duration (0-2 Minutes) Average” value [1, 2]?
A: The value was 82.38 s.

Q: What about the “Duration (0-5 Minutes) Average” value [1, 2] of the same compound?
A: Its value is 200.38 s.

Q: What about the “Duration (0-2 Minutes) Average” value [1, 3] of the same compound?
A: The value was 78.25 s.

Q: And the “Duration (0-5 Minutes) Average” value [1, 3]?
A: The value was 173.75 s.

Q: What about the “Duration (0-2 Minutes) Average” value [1, 4] of the same compound?
A: Its value is 67.00 s.

Q: What about the “Duration (0-5 Minutes) Average” value [1, 4] of the same compound?
A: The value was 170.50 s.

Q: Which “Duration (0-2 Minutes) Average” value [1, 5] does the source give for Cc1cc(Cn2c(=O)c3c(ncn3[C@@H](C)C(=O)Nc3cccc(-c4cnc(C(F)(F)F)nc4)n3)n(C)c2=O)no1 [Compound 15, (S)-2-(3-methyl-1-((5-methylisoxazol-3-yl)methyl)-2,6-dioxo-2,3-dihydro-1H-purin-7(6H)-yl)-N-(6-(2-(trifluoromethyl)pyrimidin-5-yl)pyridin-2-yl)propanamide] here?
A: Its value is 76.00 s.

Q: What about the “Duration (0-5 Minutes) Average” value [1, 5] of the same compound?
A: The value was 190.20 s.

Q: With CCC(=O)Cn1c(=O)c2c(ncn2[C@@H](C)C(=O)Nc2cccc(-c3cnc(C)c(C(F)(F)F)c3)n2)n(C)c1=O [Compound 135, (S)-2-(3-methyl-2,6-dioxo-1-(2-oxobutyl)-2,3-dihydro-1H-purin-7(6H)-yl)-N-(6′-methyl-5′-(trifluoromethyl)-[2,3′-bipyridin]-6-yl)propanamide] as the compound, how does the IC50 (human TRPA1) read?
A: Its IC50 is 4 nM.

Q: And the “Duration (0-2 Minutes) Average” value [1, 6]?
A: The value was 91.1 s.

Q: And the “Duration (0-5 Minutes) Average” value [1, 6]?
A: The value was 153.3 s.

Q: And the “Duration (0-2 Minutes) Average” value [1, 7]?
A: The value was 80.3 s.

Q: And the “Duration (0-5 Minutes) Average” value [1, 7]?
A: The value was 120.3 s.

Q: What about the “Duration (0-2 Minutes) Average” value [1, 8] of the same compound?
A: The value was 74.3 s.

Q: What about the “Duration (0-5 Minutes) Average” value [1, 8] of the same compound?
A: Its value is 139.0 s.

Q: Which IC50 (human TRPA1) does the source give for C[C@@H](C(=O)Nc1cncc(-c2cnc(N3CC4CC4C3)nc2)n1)n1cnc2c1c(=O)n(CC#N)c(=O)n2C (some centres unmarked) [Compound 144] here?
A: Its IC50 is 6 nM.

Q: What about the “Duration (0-2 Minutes) Average” value [1, 8] of the same compound?
A: Its value is 64.6 s.

Q: What about the “Duration (0-5 Minutes) Average” value [1, 8] of the same compound?
A: Its value is 181.3 s.

Q: With C[C@@H](C(=O)Nc1cccc(-c2cnc(N3CC4CC4C3)nc2)n1)n1cnc2c1c(=O)n(CC#N)c(=O)n2C (stereo partly drawn) [Compound 149, (2S)—N-(6-(2-(3-azabicyclo[3.1.0]hexan-3-yl)pyrimidin-5-yl)pyridin-2-yl)-2-(1-(cyanomethyl)-3-methyl-2,6-dioxo-2,3-dihydro-1H-purin-7(6H)-yl)propanamide] as the compound, how does the IC50 (human TRPA1) read?
A: The IC50 was 2 nM.

Q: What about the “Duration (0-2 Minutes) Average” value [1, 9] of the same compound?
A: The value was 41.9 s.

Q: And the “Duration (0-5 Minutes) Average” value [1, 9]?
A: Its value is 153.0 s.

Q: For C[C@@H](C(=O)Nc1ccnc(-c2cnc(N3CC4CC4C3)nc2)n1)n1cnc2c1c(=O)n(CC#N)c(=O)n2C (stereo partly drawn) [Compound 155, (2S)—N-(2′-(3-azabicyclo[3.1.0]hexan-3-yl)-2,5′-bipyrimidin-4-yl)-2-(1-(cyanomethyl)-3-methyl-2,6-dioxo-2,3-dihydro-1H-purin-7(6H)-yl)propanamide], which IC50 (human TRPA1) is on record?
A: Its IC50 is 5 nM.

Q: What about the “Duration (0-2 Minutes) Average” value [1, 8] of the same compound?
A: The value was 59.4 s.

Q: And the “Duration (0-5 Minutes) Average” value [1, 8]?
A: Its value is 182.5 s.

Q: With COCC(=O)Cn1c(=O)c2c(ncn2[C@@H](C)C(=O)Nc2csc(-c3cnc(N4CC5CC5C4)cn3)n2)n(C)c1=O (stereo partly drawn) [Compound 264, (2S)—N-(2-(5-(3-azabicyclo[3.1.0]hexan-3-yl)pyrazin-2-yl)thiazol-4-yl)-2-(1-(3-methoxy-2-oxopropyl)-3-methyl-2,6-dioxo-2,3-dihydro-1H-purin-7(6H)-yl)propanamide] as the compound, how does the IC50 (human TRPA1) read?
A: Its IC50 is 31 nM.

Q: How did the IC50 (human TRPA1) turn out when COCC(=O)Cn1c(=O)c2c(ncn2[C@@H](C)C(=O)Nc2csc(-c3cnc(N4CC5C(C4)C5(F)F)nc3)n2)n(C)c1=O (stereo partly drawn) [Compound 265, (2S)—N-(2-(2-(6,6-difluoro-3-azabicyclo[3.1.0]hexan-3-yl)pyrimidin-5-yl)thiazol-4-yl)-2-(1-(3-methoxy-2-oxopropyl)-3-methyl-2,6-dioxo-2,3-dihydro-1H-purin-7(6H)-yl)propanamide] was run?
A: Its IC50 is 3 nM.

Q: How did the IC50 (human TRPA1) turn out when COCC(=O)Cn1c(=O)c2c(ncn2[C@@H](C)C(=O)Nc2cccc(-c3cnc(N4CC5CC5C4)cn3)n2)n(C)c1=O (stereo partly drawn) [Compound 266, (2S)—N-(6-(5-(3-azabicyclo[3.1.0]hexan-3-yl)pyrazin-2-yl)pyridin-2-yl)-2-(1-(3-methoxy-2-oxopropyl)-3-methyl-2,6-dioxo-2,3-dihydro-1H-purin-7(6H)-yl)propanamide] was run?
A: The IC50 was 7 nM.

Q: Which IC50 (human TRPA1) does the source give for CC#CCn1c(=O)c2c(ncn2[C@@H](C)C(=O)Nc2csc(-c3cnc(N4CC5C(C4)C5(F)F)nc3)n2)n(C)c1=O (stereo partly drawn) [Compound 267, (2S)-2-(1-(but-2-ynyl)-3-methyl-2,6-dioxo-2,3-dihydro-1H-purin-7(6H)-yl)-N-(2-(2-(6,6-difluoro-3-azabicyclo[3.1.0]hexan-3-yl)pyrimidin-5-yl)thiazol-4-yl)propanamide] here?
A: Its IC50 is 2 nM.

Q: With CC#CCn1c(=O)c2c(ncn2[C@@H](C)C(=O)Nc2csc(-c3cnc(N4CCC[C@H]4C(F)(F)F)nc3)n2)n(C)c1=O [Compound 268, (S)-2-(1-(but-2-ynyl)-3-methyl-2,6-dioxo-2,3-dihydro-1H-purin-7(6H)-yl)-N-(2-(2-((S)-2-(trifluoromethyl)pyrrolidin-1-yl)pyrimidin-5-yl)thiazol-4-yl)propanamide] as the compound, how does the IC50 (human TRPA1) read?
A: Its IC50 is 1 nM.

Q: For COCC(=O)Cn1c(=O)c2c(ncn2[C@@H](C)C(=O)Nc2csc(-c3ccc(N4CC5C(C4)C5(F)F)nc3)n2)n(C)c1=O (stereo partly drawn) [Compound 269, (2S)—N-(2-(6-(6,6-difluoro-3-azabicyclo[3.1.0]hexan-3-yl)pyridin-3-yl)thiazol-4-yl)-2-(1-(3-methoxy-2-oxopropyl)-3-methyl-2,6-dioxo-2,3-dihydro-1H-purin-7(6H)-yl)propanamide], which IC50 (human TRPA1) is on record?
A: The IC50 was 4 nM.

Q: For CCC(=O)Cn1c(=O)c2c(ncn2[C@@H](C)C(=O)Nc2csc(-c3cnc(N4CC5CC5C4)cn3)n2)n(C)c1=O (stereo partly drawn) [Compound 270, (2S)—N-(2-(5-(3-azabicyclo[3.1.0]hexan-3-yl)pyrazin-2-yl)thiazol-4-yl)-2-(3-methyl-2,6-dioxo-1-(2-oxobutyl)-2,3-dihydro-1H-purin-7(6H)-yl)propanamide], which IC50 (human TRPA1) is on record?
A: Its IC50 is 3 nM.

Q: For COCC(=O)Cn1c(=O)c2c(ncn2[C@@H](C)C(=O)Nc2cncc(-c3ccc(N4CC5CC5C4)nc3)n2)n(C)c1=O (stereo partly drawn) [Compound 271, (2S)—N-(6-(6-(3-azabicyclo[3.1.0]hexan-3-yl)pyridin-3-yl)pyrazin-2-yl)-2-(1-(3-methoxy-2-oxopropyl)-3-methyl-2,6-dioxo-2,3-dihydro-1H-purin-7(6H)-yl)propanamide], which IC50 (human TRPA1) is on record?
A: The IC50 was 5 nM.

Q: Which IC50 (human TRPA1) does the source give for COCC(=O)Cn1c(=O)c2c(ncn2[C@@H](C)C(=O)Nc2cccc(-c3cnc(N4CC5C(C4)C5(F)F)cn3)n2)n(C)c1=O (some centres unmarked) [Compound 272] here?
A: The IC50 was 7 nM.

Q: For “(S)-2-(3-methyl-1-((3-methyl-1,2,4-oxadiazol-5-yl)methyl)-2,6-dioxo-2,3-dihydro-1H-purin-7(6H)-yl)-N-(5′-methyl-6′-(trifluoromethyl)-[2,3′-bipyridin]-6-yl)propanamide [Compound 134]”, which IC50 (human TRPA1) is on record?
A: The IC50 was 3 nM.
